Series [1] has as its target Porcine pancreatic elastase (PPE) (Sus scrofa, UniProt P00772). In words: Spectrophotometric assay of PPE inactivation (in vitro). The class given is biochemical. As to conditions: for kinact/KI: Table I azolides, read-out: Porcine pancreatic elastase k3 /Ki. The protocol: The enzyme assays used to evaluate the potency of the inhibitors in vitro were performed as follows: PPE was assayed spectrophotometrically at 347.5 nm with (tert-butoxycarbonyl)-alanyl-p-nitrophenol in 0.05 M phosphate buffer, pH 6.5, 25° C., or by using succinyl-L-trialanyl-p-nitroanilide in 0.1 M Tris buffer, pH 8.0, at 410 nm. HLE was assayed spectrophotometrically at 410 nm with succinyl-L-trialanyl-p-nitroanilide or methoxy succinyl ala-ala-pro-val-p-nitroanilide (As describe by K. Wakajima et al in the J. Biol. Chem, 254, 4027-4032 (1979) and T. Teshima et al, in J. Biol. Chem 257, 5085-5091 (1982). The potency of an inhibitor is determined by obtaining a kinetic determination of the bimolecular rate constant K3 /Ki (or Robsd /[I]). The HLE used in these studies may be obtained from Elastin Products, St. Louis, Mo.) in 0.1 M Tris buffer, pH 8.0.
The appropriate amount of inhibitor in acetonitrile was mixed with PPE in phosphate buffer solution and placed in a constant temperature bath. Aliquots were withdrawn at different time intervals and transferred to a cuvette containing 100 uL of substrate, 140 uL of acetonitrile, and 2 mL of phosphate buffer, pH 6.5. After incubating for 30 seconds, the absorbance change was monitored for two minutes at 347.5 nm. The inhibitor-to-enzyme ratios varied between 50 and 200, and the incubation intervals were shortened or lengthened depending upon the potency of the inhibitor. Controlled reactions for 100% PPE activity were run in the presence of acetonitrile. A similar procedure was followed for HLE.
The reaction of an irreversible inhibitor with PPE and HLE may be illustrated by the scheme shown below: [drawing 5] where EI is the noncovalently bound enzyme-inactivator complex and E-I is the final product with the inhibitor covalently bound to the enzyme. The kinetics data were analyzed according to known procedures. The apparent pseudo-first-order inactivation rate constants were determined from the slopes of semilogarithmic plots of enzymatic activity remaining versus time using the following equation: [formula] where Et /EO is the amount of active enzyme remaining after time "t". Inhibition is generally expressed in terms of k3 /Ki, M^-1 s^-1, wherein Ki is the disassociation constant for the enzyme inhibitor complex and k3 is a limiting rate constant for the irreversible loss of enzymatic activity.
Table I below illustrates the inhibition found with assays of nine amino-acid-derived azolides against PPE and HLE.

In series [2] the target is T1, Human leukocyte elastase (HLE) (Homo sapiens, UniProt P08246).
T1 construct: purchased Elastin Products, St. Louis, Mo
T1 sequence (P08246 30-267): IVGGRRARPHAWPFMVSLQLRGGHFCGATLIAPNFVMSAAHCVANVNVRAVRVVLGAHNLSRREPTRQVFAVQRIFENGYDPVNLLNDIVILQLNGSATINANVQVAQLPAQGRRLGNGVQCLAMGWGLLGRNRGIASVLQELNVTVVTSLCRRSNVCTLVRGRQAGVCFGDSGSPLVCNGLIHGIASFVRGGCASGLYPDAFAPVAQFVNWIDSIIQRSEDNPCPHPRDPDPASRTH
Kind of series: Spectrophotometric assay of HLE inactivation (in vitro). The class given is biochemical. As for the experimental part:
The appropriate amount of inhibitor in acetonitrile was mixed with PPE in phosphate buffer solution and placed in a constant temperature bath. Aliquots were withdrawn at different time intervals and transferred to a cuvette containing 100 uL of substrate, 140 uL of acetonitrile, and 2 mL of phosphate buffer, pH 6.5. After incubating for 30 seconds, the absorbance change was monitored for two minutes at 347.5 nm. […] Controlled reactions for 100% PPE activity were run in the presence of acetonitrile. A similar procedure was followed for HLE.
The reaction of an irreversible inhibitor with PPE and HLE may be illustrated by the scheme shown below: [drawing 5] where EI is the noncovalently bound enzyme-inactivator complex and E-I is the final product with the inhibitor covalently bound to the enzyme. The kinetics data were analyzed according to known procedures. The apparent pseudo-first-order inactivation rate constants were determined from the slopes of semilogarithmic plots of enzymatic activity remaining versus time using the following equation: [formula] where Et /EO is the amount of active enzyme remaining after time "t".
The assay procedure used was the procedure identified relative to the tests above in Table I.
(kobsd) were determined by plotting in [E]t /[E]o vs time.

The subject of series [3] is PPE. As to conditions: cited from earlier work; for Irreversible inhibition of PPE (in words): 183rd ACS National Meeting, 1982.
Series [4] in a line: Inactivation of S-ethylcysteine sulfonate salt by oxidants / hydrolysis in buffer. The class given is physicochemical. The source says:
In addition, compound 3, Table VI, was exposed to oxidants in vitro and the rates of its inactivation with chloramine-T and H2 O2 compared to buffer alone are summarized in Table VII below. […] The observed rates of inhibitor inactivation are 6 to 12 fold smaller than the rate at which the inhibitor inactivates the enzyme.

The mark [5] stands for this setting: Table I azolides, read-out: Human leukocyte elastase k3 /Ki.

Here are results for 16 molecules from patent US4929736A, “Latent isocynate derivatives useful for deactivating enzymes” (Board of Trustees of the Wichita State University, priority 1986, dated 1990).

“Also recorded” adds a separate entry of the source. Read-outs that look alike come from different tables or passages of the source.

Sequence of Porcine pancreatic elastase (PPE) (P00772 27-266): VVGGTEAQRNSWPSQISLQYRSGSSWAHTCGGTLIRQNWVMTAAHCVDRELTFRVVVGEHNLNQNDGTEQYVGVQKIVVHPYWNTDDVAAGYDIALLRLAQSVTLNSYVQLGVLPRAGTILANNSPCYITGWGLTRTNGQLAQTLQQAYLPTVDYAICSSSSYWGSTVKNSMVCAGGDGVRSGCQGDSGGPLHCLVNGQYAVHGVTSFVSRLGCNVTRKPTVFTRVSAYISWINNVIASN

For `COC(=O)[C@H](CCSC)NC(=O)n1ccnc1` [N-(1H-imidazol-1-ylcarbonyl)-methionine methyl ester], in series [1], the “Inhibition of PPE (in words)” value is on record as “unaffected”. Further, the “Inhibition of HLE (in words)” value in series [2] is “remarkable specificity and high potency”; in series [2] (listed as methionine azolide) it was “highly effective”.
Regarding `COC(=O)[C@@H](NC(=O)n1ccnc1)C(C)C` [Compound 3, Table I], the kinact/KI in series [1] turned out to be 2.8 M⁻¹ s⁻¹; in series [2] (setting [5]), 193 M⁻¹ s⁻¹. Moreover, the “Inhibition of HLE (in words)” value in series [2] (listed as L-valine azolide) is “highly effective”. The “Irreversible inhibition of PPE (in words)” value (“Irreversible inhibition” below) in series [3] is reported as “Particularly active”.
In the case of `COC(=O)[C@H](NC(=O)n1ccnc1)C(C)C` [Compound 4], the “Inhibition of PPE (in words)” value in series [1] is given as “no effect”. Moreover, the “Inhibition of HLE (in words)” value in series [2] is “no effect”.
In the case of `CCCCC(NC(=O)n1ccnc1)C(=O)OC` (racemic) [Compound 9, Table I], the kinact/KI in series [1] was 2.2 M⁻¹ s⁻¹; in series [2] (setting [5]) it was 167 M⁻¹ s⁻¹.
Turning to `CCCC(NC(=O)n1ccnc1)C(=O)OC` (racemic) [DL-norvaline methyl ester derivative], the “Irreversible inhibition” value in series [3] was “Particularly active”.
For the molecule `COC(=O)CNC(=O)n1ccnc1` [Compound 1], the “Inhibition of PPE (in words)” value in series [1] was “failed to deactivate”. Further, the “Inhibition of HLE (in words)” value in series [2] is reported as “failed to deactivate”.
As to `COC(=O)[C@H](C)NC(=O)n1ccnc1` [Compound 2], the “Inhibition of PPE (in words)” value in series [1] is listed as “marginal inhibitory activity”. In series [2], the “Inhibition of HLE (in words)” value is reported as “marginal inhibitory activity”.
For the molecule `CCOC(=O)CNC(=O)n1ccnc1` [glycine ethel ester derivative], in series [3], the “Irreversible inhibition” value was “inactive”.
Consider `COC(=O)[C@H](CC(C)C)NC(=O)n1ccnc1` [Compound 7, Table I], for which the kinact/KI in series [1] was found to be 0.5 M⁻¹ s⁻¹. Besides, the “Inhibition of HLE (in words)” value in series [2] was “highly effective”.
As for `CCC[C@H](NC(=O)n1ccnc1)C(=O)OC` [Compound 5], the “Inhibition of PPE (in words)” value in series [1] is “little for PPE”. Besides, the kinact/KI in series [1] was 6.3 M⁻¹ s⁻¹; in series [2] (setting [5]), 500 M⁻¹ s⁻¹. Besides, in series [2], the “Inhibition of HLE (in words)” value is given as “effective inhibitors; also recorded: avidity for HLE”.
In the case of `CCCCNC(=O)n1ccnc1` [n-butyl derivative], the “Inhibition of PPE (in words)” value in series [3] (Biochem. Biophys. Res. Commun. report (1980)) is “particularly capable of binding to the active site of the enzyme”.
Take `COC(=O)[C@H](NC(=O)n1ccnc1)C(C)C` [Compound 4, Table I]: the “Irreversible inhibition” value in series [3] is on record as “marginal activity”.
For `CCSC[C@H](NC(=O)S(=O)(=O)O)C(=O)OC` [Compound 3, Table VI], in series [2] (Table VI, sulfur-containing amino acid esters, read-out: kobsd /[I], inhibition of HLE), the kinact/KI stood at 1800 M⁻¹ s⁻¹. For the same molecule, the “kobsd, inactivation of inhibitor” value in series [4] (Chloramine T (0.06 mM), first line) was 6.6 × 10^-4 sec ^-1; in series [4] (Chloramine T (0.06 mM), second line) it was 3.2 × 10^-3 sec ^-1; in series [4] (H2O2 (1 mM)), 1.2 × 10^-3 sec ^-1; in series [4] (Triss buffer, pH 8.0 (0.2 M)), 5.8 × 10^-4 sec ^-1. In series [4] (buffer, pH 8.0), the “half life of hydrolysis in buffer solution” value is recorded as “twenty”. The “scavenging of oxidants (in words)” value in series [4] (chloramine-T and H2O2) was “scavenged by the inhibitor in a time dependent and efficient fashion”. Further, the “half life with addition of oxidants (in words)” value in series [4] (chloramine-T, H2O2) is on record as “shorter half lives”.
For the molecule `COC(=O)[C@@H](NC(=O)n1ccnc1)C(C)C` [Compound 3], the “Inhibition of PPE (in words)” value in series [1] was “poor inhibitor; also recorded: little for PPE”. Also, the “Inhibition of HLE (in words)” value in series [2] is reported as “excellent inhibitor; also recorded: avidity for HLE”.
Turning to `CCCCC(NC(=O)n1ccnc1)C(=O)OC` (centres unmarked) [Compound 9], the “Inhibition of PPE (in words)” value in series [1] was “little for PPE”. Moreover, the “Inhibition of HLE (in words)” value in series [2] was “effective inhibitors; also recorded: avidity for HLE”.
`CCC(C)[C@H](NC(=O)n1ccnc1)C(=O)OC` (some centres unmarked) [Compound 8, Table I]: in series [1], the kinact/KI stood at 1 M⁻¹ s⁻¹.
